Assay results published in US20230310347A1, “BACTERICIDE” (priority 2020, published 2023).

Key:
[1] = system: Propionibacterium acnes (GAI 5419); experiment: Bactericidal property (Propionibacterium acnes), number of viable bacteria; format: cell-based; settings: for bactericidal effects against Cutibacterium acnes (in words): each ingredient alone, concentration not given
Procedure: Propionibacterium acnes (GAI 5419) was inoculated on a GAM agar medium (manufactured by Nissui Pharmaceutical Co., Ltd.) and precultured under anaerobic conditions at 35° C.±1° C. for 18 to 24 hours. A solution containing Propionibacterium acnes was prepared by diluting the solution to 10^7 to 10^8 bacteria/mL of Propionibacterium acnes with physiological saline.
Next, 10 mL of the samples obtained in Preparation Example 1 were inoculated with 0.1 mL of the above-mentioned solution containing Propionibacterium acnes. These were stored at room temperature for 30 minutes and then diluted 10-fold with an SCDLP agar medium (manufactured by Nihon Pharmaceutical Co., Ltd.) and neutralized. These were poured onto a GAM agar medium (manufactured by Nissui Pharmaceutical Co., Ltd.) according to the pour plate culture method, and anaerobically cultured at 35° C.±1° C. for 2 to 5 days. After that, the numbers of viable bacteria were determined from the numbers of colonies formed and the dilution factor. It is noted that physiological saline was used for the control in place of the samples.
The numbers of viable bacteria were determined in the same manner as Experiment Example 1-1 except that the samples obtained in Preparation Example 1 were changed to the samples obtained in Preparation Example 2.
The numbers of viable bacteria were determined in the same manner as Experiment Example 1-1 except that the samples obtained in Preparation Example 1 were changed to the above-mentioned Samples α30 to α33.
Furthermore, Sample β20 (100 μg/mL of Hinokitiol+100 μg/mL of linalool) was prepared in the same manner as Sample al except that tea tree oil was changed to linalool.

[2] = Storage stability of ingredient (B) alone or mixed with Hinokitiol, GC area percentage; format: physicochemical
Procedure: The storage stability of limonene alone and the storage stability of limonene mixed with Hinokitiol were evaluated.
Specifically, limonene was placed in a glass vial, which was hermetically sealed by tightening a septum with an aluminum cap.
Furthermore, 50 parts by mass of limonene and 50 parts by mass of Hinokitiol were mixed, placed in a glass vial different from the above-described glass vial, and hermetically sealed by tightening a septum with an aluminum cap. These two samples were stored at 60° C. for 7 days, and the area percentage of limonene in the glass vials was measured by GC (the instrument: GC-2010 Plus manufactured by Shimadzu Corporation; the detector: flame ionization detector; the column: DB-624 manufactured by Agilent Technologies Japan, Ltd.) immediately after the start of the experiment, after 1 day, after 4 days, and after 7 days. The initial data (immediately after the start of the experiment) was the GC measurement result of limonene alone.
Regarding α-terpinene, γ-terpinene, and terpinen-4-ol, the storage stability of each of these alone and the storage stability of each of these mixed with Hinokitiol were evaluated.
Specifically, measurements were made in the same manner as Experiment Example 6-1 except that limonene was changed to α-terpinene, γ-terpinene, and terpinen-4-ol, respectively. It is noted that, regarding γ-terpinene, GC measurements were only made immediately after the start of the experiment, after one day, and after seven days.

[3] = 60° C., After 1 day, Hinokitiol Absent
[4] = 60° C., After 1 day, Hinokitiol Present (50:50 parts by mass)
[5] = 60° C., After 4 days, Hinokitiol Absent
[6] = 60° C., After 4 days, Hinokitiol Present (50:50 parts by mass)
[7] = 60° C., After 7 days, Hinokitiol Absent
[8] = 60° C., After 7 days, Hinokitiol Present (50:50 parts by mass)
[9] = Immediately after the start of the experiment, Hinokitiol Absent
[10] = Immediately after the start of the experiment, Hinokitiol Present (initial data = GC result of ingredient alone)

Row | Compound | bactericidal effects against Propionibacterium acnes (in words) ([1]; 100 μg/mL, Tables 1 and 2) | bactericidal effects against Propionibacterium acnes (in words) ([1]; 50 βg/mL, Table 5) | residual ratio (area percentage (%)) [2, 3] | residual ratio (area percentage (%)) [2, 4] | residual ratio (area percentage (%)) [2, 5] | residual ratio (area percentage (%)) [2, 6] | residual ratio (area percentage (%)) [2, 7] | residual ratio (area percentage (%)) [2, 8] | residual ratio (area percentage (%)) [2, 9] | residual ratio (area percentage (%)) [2, 10] | bactericidal effects against Cutibacterium acnes (in words) [1] | storage stability (in words) ([2]; when combined with a phenol derivative typified by Hinokitiol, Tables 10 to 13)
1 | CC(C)c1cccc(=O)c(O)c1 [Hinokitiol] | insufficient bactericidal effects | insufficient bactericidal effects |  |  |  |  |  |  |  |  |  | 
2 | Cc1cc(O)ccc1C(C)C [Isopropylmethylphenol, 4-isopropyl-3-methylphenol] | insufficient bactericidal effects |  |  |  |  |  |  |  |  |  |  | 
3 | CC1=CCC(O)(C(C)C)CC1 (stereo not shown) [Terpinen-4-ol, terpinen-4-ol] | insufficient bactericidal effects | insufficient bactericidal effects | 92.86% | 97.13% | 84.09% | 96.83% | 74.45% | 96.52% | 96.94% | 96.94% | insufficient | 
4 | CC1=CC=C(C(C)C)CC1 [α-Terpinene, α-terpinene] | no bactericidal effects | no bactericidal effects | 85.27% | 82.68% | 81.54% | 77.11% | 78.45% | 70.49% | 89.95% | 89.95% | almost no bactericidal effects | 
5 | CC1=CCC(C(C)C)=CC1 [γ-Terpinene, γ-terpinene] | no bactericidal effects | no bactericidal effects | 92.09% | 92.22% |  |  | 85.49% | 84.44% | 96.81% | 96.81% | almost no bactericidal effects | 
6 | (+)-Limonene | no bactericidal effects | no bactericidal effects | 95.67% | 96.49% | 95.45% | 96.57% | 94.43% | 96.41% | 96.85% | 96.85% | almost no bactericidal effects | superior storage stability
